Laboratory results taken from ChEMBL document CHEMBL3580625, “The synthesis and functional evaluation of a mitochondria-targeted hydrogen sulfide donor, (10-oxo-10-(4-(3-thioxo-3H-1,2-dithiol-5-yl)phenoxy)decyl)triphenylphosphonium bromide (AP39)” (Medchemcomm, 2014).
Activity calls are given as the source filed them. The calls are words filed in the database; no cut-off is given here.

Experiments:
[1] = tested on: hCMEC/D3; test: (§1) Cytoprotective activity in human CMEC/D3 cells assessed as inhibition of H2O2-induced oxidative stress-mediated toxicity by measuring cell viability at 100 nM preincubated for 1 hr followed by H2O2 induction measured after 24 hrs by Alamar blue assay; type: functional, cell-based
[2] = tested on: hCMEC/D3; test: (§2) Cytoprotective activity in human CMEC/D3 cells assessed as inhibition of 4-HNE-induced oxidative stress-mediated toxicity by measuring cell viability at 100 nM preincubated for 1 hr followed by 4-HNE induction measured after 24 hrs by Alamar blue assay; type: functional, cell-based
[3] = tested on: hCMEC/D3; test: as §2, with “assay in presence of 5-(4-hydroxyphenyl)-3H-1,2-dithiole-3-thione” for “assay”; type: functional, cell-based
[4] = tested on: hCMEC/D3; test: as §1, with “SIN-1-induced” for “H2O2-induced”, “SIN-1” for “H2O2”, “assay in presence of 5-(4-hydroxyphenyl)-3H-1,2-dithiole-3-thione” for “assay”; type: functional, cell-based
[5] = tested on: hCMEC/D3; test: Cytoprotective activity in human CMEC/D3 cells assessed as inhibition of SIN-1-induced oxidative stress-mediated toxicity by measuring cell viability at 100 nM preincubated for 1 hr followed by SIN-1 induction measured after 24 hrs by Alamar blue assay; type: functional, cell-based
[6] = tested on: hCMEC/D3; test: as §1, with “assay in presence of 5-(4-hydroxyphenyl)-3H-1,2-dithiole-3-thione” for “assay”; type: functional, cell-based
[7] = tested on: hCMEC/D3; test: Cytoprotective activity in human CMEC/D3 cells assessed as inhibition of SIN-1-induced oxidative stress-mediated loss of mitochondrial membrane potential at 100 nM preincubated for 1 hr followed by SIN-1 induction measured after 24 hrs by TMRM fluorescent probe-based fluorimetric analysis; type: functional, cell-based
[8] = tested on: hCMEC/D3; test: Cytoprotective activity in human CMEC/D3 cells assessed as inhibition of H2O2-induced mitochondrial production of reactive oxygen species at 100 nM preincubated for 1 hr followed by H2O2 induction measured after 24 hrs by MitoSox Red probe-based fluorescence assay; type: functional, cell-based
[9] = Cytotoxicity against human CMEC/D3 cells up to 5 uM after 24 hrs by Alamar blue assay relative to vehicle-treated control; type: cell-based; conditions: hcmec/d3, 24 h
[10] = tested on: hCMEC/D3; test: Cytoprotective activity in human CMEC/D3 cells assessed as inhibition of 4-HNE-induced oxidative stress-mediated loss of mitochondrial membrane potential at 100 nM preincubated for 1 hr followed by 4-HNE induction measured after 24 hrs by TMRM fluorescent probe-based fluorimetric analysis; type: functional, cell-based
[11] = tested on: hCMEC/D3; test: Cytoprotective activity in human CMEC/D3 cells assessed as inhibition of SIN-1-induced mitochondrial production of reactive oxygen species at 100 nM preincubated for 1 hr followed by SIN-1 induction measured after 24 hrs by MitoSox Red probe-based fluorescence assay; type: functional, cell-based
[12] = organism: Mus musculus; test: Induction of H2S production in mitochondria of mouse bEND.3 cells at 100 nM after 1 hr by MitoTracker Red fluorescent probe-based inverted microscopic analysis; type: functional
[13] = tested on: hCMEC/D3; test: Cytoprotective activity in human CMEC/D3 cells assessed as inhibition of 4-HNE-induced mitochondrial production of reactive oxygen species at 100 nM preincubated for 1 hr followed by 4-HNE induction measured after 24 hrs by MitoSox Red probe-based fluorescence assay; type: functional, cell-based
[14] = tested on: hCMEC/D3; test: Induction of H2S production in human CMEC/D3 cells after 1 hr by WSP-1 probe-based fluorescence assay; type: functional, cell-based
[15] = Cytotoxicity against human CMEC/D3 cells assessed as effect on mitochondrial oxidant production at 100 nM by MitoSox Red probe-based fluorescence assay; type: cell-based; conditions: hcmec/d3, 0.1 µM
[16] = tested on: hCMEC/D3; test: Cytoprotective activity in human CMEC/D3 cells assessed as inhibition of rotenone-mediated reduction of ATP level at 100 nM preincubated for 1 hr followed by rotenone induction measured after 18 hrs by firefly lantern luciferase reporter assay; type: functional, cell-based
[17] = tested on: hCMEC/D3; test: Cytoprotective activity in human CMEC/D3 cells assessed as inhibition of rotenone-induced mitochondrial production of reactive oxygen species at 100 nM preincubated for 1 hr followed by rotenone induction by MitoSox Red probe-based fluorescence assay; type: functional, cell-based
[18] = Cytotoxicity against human CMEC/D3 cells assessed as effect on mitochondrial membrane potential at 100 nM by TMRM fluorescent probe-based fluorimetric analysis; type: cell-based; conditions: hcmec/d3, 0.1 µM
[19] = organism: Mus musculus; test: Induction of H2S production in mouse bEND.3 cells at 100 nM after 1 hr by AzMC fluorescent probe-based inverted microscopic analysis; type: functional, cell-based
[20] = tested on: hCMEC/D3; test: Cytoprotective activity in human CMEC/D3 cells assessed as inhibition of H2O2-induced oxidative stress-mediated loss of mitochondrial membrane potential at 100 nM preincubated for 1 hr followed by H2O2 induction measured after 24 hrs by TMRM fluorescent probe-based fluorimetric analysis; type: functional, cell-based

Compound | inhibition [1] | inhibition [2] | inhibition [3] | inhibition [4] | inhibition [5] | inhibition [6] | inhibition [7] | inhibition [8] | Activity [9] | inhibition [10] | inhibition [11] | Activity [12] | inhibition [13] | Activity [14] | Activity [15] | inhibition [16] | inhibition [17] | Activity [18] | Activity [19] | inhibition [20]
O=C(O)CCCCCCCCC[P+](c1ccccc1)(c1ccccc1)c1ccccc1 | inactive | inactive | inactive | inactive | inactive | inactive | – | – | – | – | – | – | – | – | – | – | – | – | – | –
Oc1ccc(-c2cc(=S)ss2)cc1 | inactive | inactive | – | – | inactive | – | – | – | – | – | – | – | – | – | – | – | – | – | – | –
O=C(CCCCCCCCC[P+](c1ccccc1)(c1ccccc1)c1ccccc1)Oc1ccc(-c2cc(=S)ss2)cc1.[Br-] | – | – | – | – | – | – | Active | Active | Non-toxic | Active | Active | Active | Active | Dose-dependent effect | Non-toxic | Active | Active | Non-toxic | Active | Active
